Data reported in patent US20170296570A1, “High Drug Load Tablets Comprising Sofosbuvir” (Sandoz AG, priority 2014, published 2017).

Tests used:
[1] = Determination of the moisture stability of polymorphic forms of sofosbuvir and amorphous sofosbuvir (humidity chamber, XRPD before and after); type: physicochemical; details: for XRPD analysis, sample after storage at 40° C./75% RH for 18 h / Visual aspect, sample after storage at 40° C./75% RH for 18 h: after 18 h at 40° C./75% RH in humidity chamber; for Visual aspect, sample after storage at 40° C./75% RH for 18 h: footnote: gel/gum = sample deliquesced; for Visual aspect, sample before storage at 40° C./75% RH / XRPD analysis, sample before storage at 40° C./75% RH: 30 mg sample
Experimental: Even more precisely, the moisture stability of the polymorphic form is defined as the amount in mg of the polymorphic form which is present after an exposure of an amount of 30 mg of the polymorphic form to a relative humidity of (75±1) % at a temperature of (40±1)° C. for an exposure time of (18±1) hours in a humidity chamber, relative to the amount of 30 mg of the polymorphic form before said exposure, as determined via X-ray powder diffraction pattern analysis at a temperature in the range of from 15 to 25° C. with Cu-Kalpha1,2 radiation having a wavelength of 0.15419 nm of the polymorphic form before the exposure and via said X-ray powder diffraction pattern analysis after the exposure.
30 mg of a given polymorphic form of sofosbuvir or of amorphous sofosbuvir prepared according to Reference Examples 1 to 4 were analyzed via XRPD as described in Reference Example 6. Then, these polymorphic forms of sofosbuvir or of amorphous sofosbuvir were exposed to an atmosphere having a relative humidity (RH) of 75% and a temperature of 40° C. for 18 hours in a humidity chamber and analyzed via XRPD as described in Reference Example 6.
XRPD patterns were obtained with an X'Pert PRO diffractometer (PANalytical, Almelo, The Netherlands) equipped with a theta/theta coupled goniometer in transmission geometry, pro-grammable XYZ stage with well plate holder, Cu-Kalpha1,2 radiation source (wavelength 0.15419 nm) with a focusing mirror, a 0.5° divergence slit, a 0.02° soller slit collimator and a 0.5° anti-scattering slit on the incident beam side, a 2 mm anti-scattering slit, a 0.02° soller slit collimator, a Ni-filter and a solid state PIXcel detector on the diffracted beam side. The diffractogram was recorded at room temperature at a tube voltage of 40 kV, tube current of 40 mA, applying a stepsize of 0.013° 2-theta with 40 sec per step in the angular range of 2° to 40° 2-theta. A typical precision of the 2-theta values is in the range of ±0.2° 2-theta. Thus, a diffraction peak that appears for example at 9.4° 2-theta can appear between 9.2 and 9.6° 2-theta on most X-ray diffractometers under standard conditions.

[2] = 40° C., relative humidity 75%; cited from earlier work

Row | SMILES | XRPD analysis, sample after storage at 40° C./75% RH for 18 h [1] | Visual aspect, sample after storage at 40° C./75% RH for 18 h [1] | Visual aspect, sample before storage at 40° C./75% RH [1] | XRPD analysis, sample before storage at 40° C./75% RH [1] | behaviour under stress conditions (deliquescence) [2]
1 | CC(C)OC(=O)[C@H](C)N[P@](=O)(OC[C@H]1O[C@@H](n2ccc(=O)[nH]c2=O)[C@](C)(F)[C@@H]1O)Oc1ccccc1 [Amorphous] | amorphous | gel/gum*^) | white powder | amorphous | 
2 | CC(C)OC(=O)[C@H](C)N[P@](=O)(OC[C@H]1O[C@@H](n2ccc(=O)[nH]c2=O)[C@](C)(F)[C@@H]1O)Oc1ccccc1 [Form 1] | amorphous | gel/gum*^) | white powder | crystalline, Form 1 | 
3 | CC(C)OC(=O)[C@H](C)N[P@](=O)(OC[C@H]1O[C@@H](n2ccc(=O)[nH]c2=O)[C@](C)(F)[C@@H]1O)Oc1ccccc1 [Form 6] | crystalline, Form 6 | white powder | white powder | crystalline, Form 6 | 
4 | CC(C)OC(=O)[C@H](C)N[P@](=O)(OC[C@H]1O[C@@H](n2ccc(=O)[nH]c2=O)[C@](C)(F)[C@@H]1O)Oc1ccccc1 [Form 7] | crystalline, Form 7 | white powder | white powder | crystalline, Form 7 | 
5 | CC(C)OC(=O)[C@H](C)N[P@](=O)(OC[C@H]1O[C@@H](n2ccc(=O)[nH]c2=O)[C@](C)(F)[C@@H]1O)Oc1ccccc1 [sofosbuvir, (S)-isopropyl 2-(((S)-(((2R,3R,4R,5R)-5-(2,4-dioxo-3,4-dihydropyrimidin-1(2H)-yl)-4-fluoro-3-hydroxy-4-methyltetrahydrofuran-2-yl)methoxy)(phenoxy)phosphoryl)-amino)propanoate] |  |  |  |  | deliquesces after a few hours
